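Interpolation was linear, between the two tested concentrations surrounding the appropriate level; five concentrations were tested over 48 hours in 96-well plates. The concentration for 50% growth inhibition is given as GI50.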 Activity calls are given as the source filed them. Rule as the data show it: active = GI50 up to about 1.1 µM and inactive = higher.
Experiments:
Experiment in all cases: NCI-60 cell line screen, 48 h
M14 = test system: M14
K562 = test system: K562
SN12C = test system: SN12C
PC-3 = test system: PC-3
KM12 = test system: KM12
A549 = test system: A549
MDA-MB-231 = test system: MDA-MB-231
UO-31 = test system: UO-31
MDA-N = test system: MDA-N
OVCAR-5 = test system: OVCAR-5
RPMI-8226 = test system: RPMI-8226
MCF7 = test system: MCF7
SNB-75 = test system: SNB-75
HOP-62 = test system: HOP-62
TK-10 = test system: TK-10
SF-539 = test system: SF-539
MOLT-4 = test system: MOLT-4
DU-145 = test system: DU-145

Row | Structure (SMILES) | GI50 (M14) | GI50 (K562) | GI50 (SN12C) | GI50 (PC-3) | GI50 (KM12) | GI50 (A549) | GI50 (MDA-MB-231) | GI50 (UO-31) | GI50 (MDA-N) | GI50 (OVCAR-5) | GI50 (RPMI-8226) | GI50 (MCF7) | GI50 (SNB-75) | GI50 (HOP-62) | GI50 (TK-10) | GI50 (SF-539) | GI50 (MOLT-4) | GI50 (DU-145)
1 | Cc1nnc([C@@]2(C)CC[C@H]3[C@@H](CC=C4C[C@@H](O)CC[C@@]43C)[C@@H]2CC#N)o1 | > 100 µM (inactive) | > 100 µM (inactive) | > 100 µM (inactive) | > 100 µM (inactive) | > 100 µM (inactive) | > 100 µM (inactive) | > 100 µM (inactive) | > 100 µM (inactive) | > 100 µM (inactive) | > 100 µM (inactive) | 97.3 µM (inactive) | > 100 µM (inactive) | 27 µM (inactive) | > 100 µM (inactive) | > 100 µM (inactive) | > 100 µM (inactive) | > 100 µM (inactive) | –
2 | COC(=O)/C=C1/OC(c2ccccc2)=C(C)C1=O | 11.7 µM (inactive) | 3.2 µM (inactive) | – | – | 14.1 µM (inactive) | – | 4.86 µM (inactive) | 13.8 µM (inactive) | 1.36 µM (inactive) | 16 µM (inactive) | 2.19 µM (inactive) | 3.81 µM (inactive) | 23.6 µM (inactive) | 16 µM (inactive) | 15.7 µM (inactive) | 17.4 µM (inactive) | 3.28 µM (inactive) | 19.3 µM (inactive)
3 | C/C(=C\COP(=O)(O)OP(=O)(O)O)CC/C=C(\C)CNc1ccccc1 | > 50 µM (inactive) | > 50 µM (inactive) | > 50 µM (inactive) | > 50 µM (inactive) | > 50 µM (inactive) | > 50 µM (inactive) | > 50 µM (inactive) | > 50 µM (inactive) | – | > 50 µM (inactive) | 0.005 µM (active) | > 50 µM (inactive) | 27.5 µM (inactive) | > 50 µM (inactive) | 39.4 µM (inactive) | > 50 µM (inactive) | 20.1 µM (inactive) | > 50 µM (inactive)
4 | CC(C)(Cc1ccccc1)Cc1cc(O)ccc1O | 17.6 µM (inactive) | 12.4 µM (inactive) | 16.7 µM (inactive) | 22.2 µM (inactive) | 15 µM (inactive) | 23.7 µM (inactive) | 20 µM (inactive) | 13.4 µM (inactive) | 16.4 µM (inactive) | 30.8 µM (inactive) | – | 23.4 µM (inactive) | 23 µM (inactive) | 30.1 µM (inactive) | 36.2 µM (inactive) | 13 µM (inactive) | 14.8 µM (inactive) | 23.1 µM (inactive)
5 | CCCCCC[C@H]1CC(=O)C2CCCC[C@@]23CC[C@H](CCl)N13.CCCCCC[C@H]1CC(=O)C2CCCC[C@@]23C[C@H](Cl)CN13 (some centres undefined) | 29.2 µM (inactive) | 28.6 µM (inactive) | 82 µM (inactive) | 23.3 µM (inactive) | 49.8 µM (inactive) | 37 µM (inactive) | 84.5 µM (inactive) | 24.3 µM (inactive) | – | > 100 µM (inactive) | 20.7 µM (inactive) | 40.1 µM (inactive) | 27.8 µM (inactive) | 91.6 µM (inactive) | 43.9 µM (inactive) | 69.5 µM (inactive) | 10 µM (inactive) | 61 µM (inactive)
6 | N#Cc1nnc2c3c(-c4ccc(Cl)cc4)c(C#N)c(O)nc3nn2c1N | 6.89 µM (inactive) | 7.33 µM (inactive) | 2.38 µM (inactive) | 1.45 µM (inactive) | 11.9 µM (inactive) | 21.1 µM (inactive) | 13.4 µM (inactive) | 6.25 µM (inactive) | 3.61 µM (inactive) | 24.8 µM (inactive) | 8.05 µM (inactive) | 2.06 µM (inactive) | – | 4.79 µM (inactive) | 22.6 µM (inactive) | 2.88 µM (inactive) | 2.62 µM (inactive) | 3.88 µM (inactive)
7 | CSc1ccccc1NC1=NCCO1 | > 100 µM (inactive) | > 100 µM (inactive) | > 100 µM (inactive) | > 100 µM (inactive) | > 100 µM (inactive) | > 100 µM (inactive) | > 100 µM (inactive) | > 100 µM (inactive) | > 100 µM (inactive) | > 100 µM (inactive) | > 100 µM (inactive) | > 100 µM (inactive) | – | > 100 µM (inactive) | > 100 µM (inactive) | > 100 µM (inactive) | > 100 µM (inactive) | > 100 µM (inactive)
8 | CCn1c(-c2cc3ccccc3cc2OC(C)=O)n[nH]c1=S | 24.2 µM (inactive) | 14.5 µM (inactive) | – | 15.8 µM (inactive) | 27.6 µM (inactive) | – | 26.1 µM (inactive) | 67.8 µM (inactive) | – | 44.6 µM (inactive) | 18.7 µM (inactive) | 30.8 µM (inactive) | – | 57.3 µM (inactive) | 27.4 µM (inactive) | 35.6 µM (inactive) | 18.7 µM (inactive) | 35.5 µM (inactive)
9 | O=C(NC1=NC2C=CC([N+](=O)[O-])=CC2S1)C(=O)Nn1c(S)nc2ccccc2c1=O (centres undefined) | > 100 µM (inactive) | 64.1 µM (inactive) | > 100 µM (inactive) | 40.6 µM (inactive) | > 100 µM (inactive) | > 100 µM (inactive) | 63.8 µM (inactive) | 27.7 µM (inactive) | > 100 µM (inactive) | > 100 µM (inactive) | 50.6 µM (inactive) | 97.7 µM (inactive) | 47.1 µM (inactive) | > 100 µM (inactive) | 63 µM (inactive) | > 100 µM (inactive) | 63 µM (inactive) | –
10 | COC(=O)[C@]12CCC(C)(C)C[C@H]1[C@H]1C(=O)C=C3[C@@]4(C)C=C(C#N)C(=O)C(C)(C)[C@@H]4CC[C@@]3(C)[C@]1(C)CC2 [BARDOXOLONE METHYL] | 0.0171 µM (active) | 0.0205 µM (active) | 0.0237 µM (active) | 0.0165 µM (active) | 0.0163 µM (active) | 0.0294 µM (active) | 0.0301 µM (active) | 0.0818 µM (active) | – | 0.04 µM (active) | < 0.0104 µM (active) | < 0.0107 µM (active) | 0.139 µM (active) | 0.0268 µM (active) | 0.0269 µM (active) | 0.0419 µM (active) | < 0.01 µM (active) | 0.0239 µM (active)
11 | CCOc1ccc2c(c1)c(CC(=O)O)cn2C | > 100 µM (inactive) | > 100 µM (inactive) | > 100 µM (inactive) | > 100 µM (inactive) | > 100 µM (inactive) | > 100 µM (inactive) | > 100 µM (inactive) | > 100 µM (inactive) | – | – | > 100 µM (inactive) | > 100 µM (inactive) | – | > 100 µM (inactive) | > 100 µM (inactive) | > 100 µM (inactive) | > 100 µM (inactive) | > 100 µM (inactive)
12 | CO/C(=N\N=C\c1ccc(C(F)(F)F)cc1)c1ccncc1 | > 10 µM (inactive) | > 10 µM (inactive) | > 10 µM (inactive) | > 10 µM (inactive) | > 10 µM (inactive) | > 10 µM (inactive) | > 10 µM (inactive) | > 10 µM (inactive) | > 10 µM (inactive) | > 10 µM (inactive) | > 10 µM (inactive) | > 10 µM (inactive) | – | > 10 µM (inactive) | > 10 µM (inactive) | – | > 10 µM (inactive) | > 10 µM (inactive)
13 | CC(C)[C@H](C)/C=C/[C@@H](C)C1CC[C@H]2[C@@]34C=C[C@]5(C[C@@H](O)CC[C@]5(C)[C@H]3CC[C@]12C)OO4 (some centres undefined) | 40.7 µM (inactive) | – | 28.6 µM (inactive) | – | 31 µM (inactive) | 42.7 µM (inactive) | 25.5 µM (inactive) | 37.3 µM (inactive) | 35.1 µM (inactive) | > 100 µM (inactive) | – | 31.9 µM (inactive) | 30.3 µM (inactive) | > 100 µM (inactive) | 42 µM (inactive) | 29.6 µM (inactive) | 28.6 µM (inactive) | 23.1 µM (inactive)
14 | NC(=O)C1Cc2cc3c(cc21)OCO3 (centres undefined) | > 100 µM (inactive) | – | – | > 100 µM (inactive) | > 100 µM (inactive) | > 100 µM (inactive) | > 100 µM (inactive) | > 100 µM (inactive) | > 100 µM (inactive) | > 100 µM (inactive) | – | > 100 µM (inactive) | > 100 µM (inactive) | > 100 µM (inactive) | > 100 µM (inactive) | > 100 µM (inactive) | – | > 100 µM (inactive)
15 | NC(N)=NCc1ccc2c(c1)OCO2 | > 100 µM (inactive) | > 100 µM (inactive) | – | > 100 µM (inactive) | 50 µM (inactive) | > 100 µM (inactive) | 95.3 µM (inactive) | > 100 µM (inactive) | > 100 µM (inactive) | > 100 µM (inactive) | 74 µM (inactive) | – | > 100 µM (inactive) | > 100 µM (inactive) | > 100 µM (inactive) | 42.7 µM (inactive) | > 100 µM (inactive) | > 100 µM (inactive)
16 | COc1ccc(N[S+]([O-])c2c(C)cc(C)cc2C)cc1 (centres undefined) | 77.8 µM (inactive) | 42.1 µM (inactive) | > 100 µM (inactive) | – | 22.5 µM (inactive) | 26.4 µM (inactive) | 80.2 µM (inactive) | 18.2 µM (inactive) | 93.1 µM (inactive) | > 100 µM (inactive) | 45.3 µM (inactive) | 56 µM (inactive) | – | 72.1 µM (inactive) | > 100 µM (inactive) | 19.9 µM (inactive) | 40.1 µM (inactive) | 93.3 µM (inactive)
17 | OCCSCc1cc2c(O)c(c1)Cc1cc(CSCCO)cc(c1O)Cc1cc(CSCCO)cc(c1O)Cc1cc(CSCCO)cc(c1O)C2 | 3.08 µM (inactive) | 7.28 µM (inactive) | 4.59 µM (inactive) | 3.51 µM (inactive) | 4.28 µM (inactive) | 4.86 µM (inactive) | 2.54 µM (inactive) | 13.8 µM (inactive) | 3.42 µM (inactive) | 5.6 µM (inactive) | 3.95 µM (inactive) | 3.91 µM (inactive) | – | 5.01 µM (inactive) | 4.8 µM (inactive) | 4.02 µM (inactive) | 3.35 µM (inactive) | 4.91 µM (inactive)

Source: ChEMBL document CHEMBL1201862, “PubChem BioAssay data set” (2004)
